≈ marks a conversion by molar mass, not a printed value.
Test: Solubility of Compound (I) in solvent components
Type: physicochemical

solubility (oil or lipid, in isopropyl myristate): ~10 mg/mL (≈ 25.4 mM)
solubility (organic solvent or mixture, in benzyl alcohol): ~100 mg/mL (≈ 254 mM)
solubility (organic solvent or mixture, in propylene carbonate): ~33 mg/mL (≈ 83.7 mM)
solubility (organic solvent or mixture, in propylene glycol): ~3 mg/mL (≈ 7.61 mM)
Compound: COc1ccc(C(=O)Cc2c(Cl)cncc2Cl)c2c1OC1(CCCC1)O2 [Compound (I), 7-[2-(3,5-dichloro-4-pyridyl)-1-oxoethyl]-4-methoxy-spiro[1,3-benzodioxol-2,1′-cyclopentane]]
